In a melting point compilation (Tetko et al.; mined from patent text by program, amines drawn as free bases though some values may be those of a salt):

SMILES	melting point
COc1cccc(OC(=O)NC2C(=O)N(CCC(C)C)c3cc(Cl)ccc3N(c3ccccc3)C2=O)c1 (stereo not given)	129 to 130 °C
Cc1c(-c2ccnn2-c2ccc(C#N)cc2)nc(C(N)=O)c(=O)n1-c1cccc(C(F)(F)F)c1	264 °C
O=C(OC1CCCCCCC1=O)c1ccccc1 (stereo not given)	92 to 93 °C
COc1ccc(OS(=O)(=O)c2ccc(N3CCN(C)C3=O)cc2)cc1	183 to 185 °C
NC(=O)C(F)(F)C(F)(F)C(F)(F)C(F)(F)C(F)(F)C(F)(F)C(F)(F)F	136 to 137 °C
CC(=CCc1c(O)c(C)c2c(c1OS(=O)(=O)c1ccc(C)cc1)C(=O)OC2)CCC(=O)O	148 to 149 °C
COC(=O)c1nc(CN2CCOCC2)n(-c2ccc(Cl)cc2C(=O)c2ccccc2Cl)n1	141 to 143 °C
Cc1nc(N2CCC(Cc3ccc(OC(F)F)cc3)C2=O)sc1C(=O)NCc1ccccc1 (stereo not given)	132 to 133 °C
CC(C)(O)c1cc(OCc2ccccc2)cc(C(C)(C)O)c1	146 to 147 °C
O=C1c2ccccc2C(=O)N1CCCCc1ccccc1	87 to 90 °C
CCN(CC)C(=O)n1cnc(S(=O)(=O)CC2CCCCO2)n1 (stereo not given)	122 °C
COc1cc(C2C3=C(COC3=O)Nc3ccc4cn[nH]c4c32)cc(OC)c1OC (stereo not given)	278 to 279 °C
Cc1c(NC(=O)C(CSC(=O)C2CCCCC2)Cc2ccccc2)cccc1C(=O)O (stereo not given)	117 to 120 °C
Cc1cc(Nc2ncnc3ccc(-c4cccs4)cc23)ccc1OCc1ccccn1	205 to 206 °C
O=C(CCCCl)c1ccc2cc(O)c(O)cc2c1	129 to 135 °C
COC(=O)C(C)c1ccc2cc(OC(=O)CO[N+](=O)[O-])ccc2c1 (stereo not given)	72 to 74 °C
O=C1NC(=O)C(c2cccc(C(F)(F)F)c2)O1 (stereo not given)	93 to 96 °C
c1ccc(-c2cc3ncnc(Nc4ccc5c(ccn5CCN5CCOCC5)c4)c3s2)cc1	225 to 226 °C
CCc1c([N+](=O)[O-])c(C(N)=O)nn1C1CN(CC)C1	177 to 179 °C
O=[N+]([O-])c1ccc(O)c(COCCO)c1	132 °C

SMILES	melting point
COc1cc2c(O)c(C(=O)O)cnc2cc1F	275 °C
COCC(=O)c1cnc2c(OC)cccc2c1Cl	96 to 98 °C
CO/N=C1\CCc2ccccc2C1=Cc1ccc(S(C)(=O)=O)cc1	175 to 178 °C
COc1ccc(C(=O)N(C(=O)c2ccc(OC)cc2)c2nc3ccc(N(C)C)cc3c(NCc3ccco3)c2C#N)cc1	143 °C
O=C(O)C1CCc2c(c3ccccc3n2Cc2ccccc2)C1 (stereo not given)	195 to 196 °C
COc1cccc(NC(=O)c2cc(C#N)cc(C)n2)c1	189 °C
C=C(C)CN1CCN(CCC(=O)N2c3ccccc3C(=O)Nc3cccnc32)CC1	210 to 211 °C
Oc1cnc(N2CCN(CCCCn3cc(Cl)cn3)CC2)nc1	131 to 132 °C
CCOC(=O)c1cn(C(C)(C)C)c2nc(N3CC4CCC(C3)N4C(=O)C(F)(F)F)c(F)cc2c1=O	205 °C
O=c1ccc(Br)cn1CC1(O)CCN(Cc2ccccc2)CC1	146 to 148 °C
CC(C)C[C@H](NC(=O)OCc1ccccc1)C(=O)N[C@@H](Cc1ccccc1)C(=O)CSc1ccccc1	105 to 106 °C
O=C1Nc2ccccc2N(C(=O)CNCCc2ccccc2)C2CCC(Cc3ccccc3)C12 (stereo not given)	108 to 109 °C
CC(c1oc2ccccc2c(=O)c1-c1cccc(F)c1)n1nc(-c2ccc3cc(O)ccc3c2)c2c(N)ncnc21 (stereo not given)	281 to 285 °C
COc1ccc(CC(=O)O)c(C(C)=O)c1	115 to 116 °C
C#CCc1c(C)nc2c(NCc3c(C)cccc3NC(=O)CO)cccn12	195 to 196 °C
O=C(NCCO)c1cccc(-c2cccc3nc(Oc4cccc(C(F)(F)F)c4)sc23)c1	103 to 104 °C
Cc1cc2c(s1)Oc1ccccc1N=C2N1CCN(CCO)CC1	87 to 89 °C
CC(C)CC(=O)Nc1cccc(-c2ccnc3c(-c4cccc(Cl)c4)cnn23)c1	169 to 171 °C
NCc1nc(-c2ncn3c2[C@@H]2CCN2C(=O)c2sccc2-3)no1	235 to 238 °C
O=c1oc2cc(Cl)cnc2n1CCl	105 to 107 °C

The remaining lines, values ahead:

melting point	SMILES
200 to 202 °C	N#Cc1cc(O)ccc1[N+](=O)[O-]
172 to 174 °C	CC(C)(C)OC(=O)CN1C(=O)[C@@H](N)[C@H](c2ccccc2)Sc2ccccc21 (relative stereo)
115 to 116 °C	O=S(=O)(NC1CCN(S(=O)(=O)c2cccs2)C1)c1ccc(Cl)cc1 (stereo not given)
85 °C	Cc1cc(-n2ccnc2)c2cccc(OCc3c(Cl)ccc(S(=O)(=O)N4CCC[C@H]4C(=O)NCCCCCN(C)C)c3Cl)c2n1
122 °C	O=C1N(CCCl)c2ccc(F)cc2C12SCCCS2
212 to 213 °C	CC(=O)N1CCN(c2ccc(Nc3nccc(-c4sc(NCCc5ccccc5)nc4C)n3)cc2)CC1
130 to 133 °C	c1cnc2[nH]c(C3CCNC3)cc2c1 (stereo not given)
119 to 120 °C	C=CCCC(=O)N1C(=O)OC[C@@H]1C(C)C
129 to 133 °C	CCCCCC(C)C(C)c1cc(O)c(CN2CCN(C)CC2)c(O)c1 (stereo not given)
159 to 162 °C	COc1cc([N+](=O)[O-])c(N)cc1C(=O)N1CCCC1
94 to 95 °C	O=C(CCc1nc(-c2ccc(Cl)cc2)co1)OC(c1ccccc1)c1ccccc1
36 to 37 °C	CCC(C)Nc1c(N)cc(C)c(C)c1[N+](=O)[O-] (stereo not given)
218 to 219 °C	CC1COCc2nc3c(N)nc4ccc(OC(=O)N5CCCC5)cc4c3n21 (stereo not given)
234 to 237 °C	COc1ccc(-c2c(C)cc3c(O)cc(C)nn23)c(C)c1
109 °C	COC(=O)CCCc1cc2nc(Cl)ccc2n1S(=O)(=O)c1cccc(Br)c1
154 to 157 °C	COc1ccc(CC2CNC(=O)N2)cc1OCc1ccccc1 (stereo not given)
128 to 130 °C	CCOC(=O)Cc1c(C(=O)OCC)[nH]c2ccc(F)cc12
110 °C	CCC(C(=O)O)N(C(=O)c1cn(-c2ccc(F)cc2F)nc1C)c1ccc(OCC(C)(C)C)c(C#N)c1 (stereo not given)
155 to 157 °C	CNC(=O)N(O)Cc1ccc2c(c1)OCc1ccccc1C2=O
207 to 210 °C	COc1cc2c3ccc(OC)c(OC)c3n(Cc3c(Cl)cccc3Cl)c2cc1OC
134 to 136 °C	CN(C)c1ncc2c(=O)n(CCc3ccccn3)sc2n1
169 to 170 °C	COc1cc(OC)nc(CN2C(=O)C3(COc4cc5c(cc43)OCCO5)c3ccccc32)n1 (stereo not given)
162 °C	CC(=O)OC1CSC(Oc2cncc(-c3cccnc3Cl)c2)C(OC(C)=O)C1OC(C)=O (stereo not given)
196 to 198 °C	CC(=O)Nc1nc2c(nc(F)n2COCCOC(C)=O)c(=O)[nH]1
101 to 108 °C	CCCCCCCCCCc1sc(NC(=O)Nc2c(C(C)C)cccc2C(C)C)nc1C
130 to 140 °C	COc1ccc(C2C(=O)NC(C)(C(C)C)C2=O)c(Cl)c1 (stereo not given)
141 to 143 °C	ON=Cc1cccc(OCCN2CCC(Cc3ccccc3)CC2)c1
206 to 207 °C	Cc1cc2c(cc1C)C1(CO2)C(=O)Nc2ccccc21 (stereo not given)
178 to 179 °C	CCOC(=O)c1c(CCl)nc2sc3c(c2c1-c1ccc(OC)c(OC)c1)CCCN3C(=O)OCc1ccccc1
153 to 155 °C	Cn1ncc2c1CCCc1cn[nH]c1-2
